Test results taken from ChEMBL document CHEMBL3885881, “DrugMatrix”.

Species on record: Rattus norvegicus
Assay: DrugMatrix - Regimen: Daily Repeat
Type: toxicity, organism-based, Sprague-Dawley
Parameters: regimen Daily Repeat, gender Male, age 6-8 weeks
Conditions: in vivo, po, route oral GAVAGE, […]; for ABSOLUTE BASOPHIL / ABSOLUTE EOSINOPHIL / ABSOLUTE LYMPHOCYTE / ABSOLUTE MONOCYTE / ABSOLUTE SEGMENTED NEUTROPHIL / BASOPHIL / EOSINOPHIL / ERYTHROCYTE COUNT / HEMATOCRIT / HEMOGLOBIN / LEUKOCYTE COUNT / LYMPHOCYTE / MEAN CORPUSCULAR HEMOGLOBIN / MEAN CORPUSCULAR HEMOGLOBIN CONCENTRATION / MEAN CORPUSCULAR VOLUME / MONOCYTE / NEUTROPHIL / NUCLEATED RED BLOOD CELLS / PLATELET COUNT: tissue Blood; for ALANINE AMINOTRANSFERASE / ALBUMIN / ALKALINE PHOSPHATASE / ASPARTATE AMINOTRANSFERASE / BLOOD UREA NITROGEN / CARBON DIOXIDE / CHLORIDE / CHOLESTEROL / CREATINE PHOSPHOKINASE / CREATININE / GLUCOSE / LACTATE DEHYDROGENASE / LIPASE / PHOSPHORUS / POTASSIUM / SODIUM / TOTAL BILIRUBIN / TOTAL PROTEIN / URIC ACID: tissue Plasma
[1] = 0 mg/kg, 72 h, dose level Control, time 3 day
[2] = 0 mg/kg, 120 h, dose level Control, time 5 day
[3] = 100 mg/kg, 72 h, dose level Low, time 3 day

SMILES: CC(=O)Nc1ccc(O)cc1 [ACETAMINOPHEN]
- ABSOLUTE BASOPHIL [1]: 0 CELLS/uL
- ABSOLUTE EOSINOPHIL [1]: 0 CELLS/uL
- ABSOLUTE LYMPHOCYTE [1]: 6275.67 CELLS/uL
- ABSOLUTE MONOCYTE [1]: 40.67 CELLS/uL
- ABSOLUTE SEGMENTED NEUTROPHIL [1]: 633.67 CELLS/uL
- BASOPHIL [1]: 0%
- EOSINOPHIL [1]: 0%
- ERYTHROCYTE COUNT [1]: 5.2 x10E6/uL
- HEMATOCRIT [1]: 32.78%
- HEMOGLOBIN [1]: 12.98 G/DL
- LEUKOCYTE COUNT [1]: 6.95 x10E3/uL
- LYMPHOCYTE [1]: 90.17%
- MEAN CORPUSCULAR HEMOGLOBIN [1]: 24.97 pg
- MEAN CORPUSCULAR HEMOGLOBIN CONCENTRATION [1]: 39.62 G/DL
- MEAN CORPUSCULAR VOLUME [1]: 63.03 fL
- MONOCYTE [1]: 0.67%
- NEUTROPHIL [1]: 9.17%
- NUCLEATED RED BLOOD CELLS [1]: 0 /100WBC
- PLATELET COUNT [1]: 1082.83 x10E3/uL
- ALANINE AMINOTRANSFERASE [1]: 69.67 u/L
- ALBUMIN [1]: 4.15 G/DL
- ALKALINE PHOSPHATASE [1]: 430.5 u/L
- ASPARTATE AMINOTRANSFERASE [1]: 90.83 u/L
- BLOOD UREA NITROGEN [1]: 13 mg/dL
- CARBON DIOXIDE [1]: 33 mmol/L
- CHLORIDE [1]: 99.17 MEQ/L
- CHOLESTEROL [1]: 70.5 mg/dL
- CREATINE PHOSPHOKINASE [1]: 253.33 u/L
- CREATININE [1]: 0.13 mg/dL
- GLUCOSE [1]: 157.17 mg/dL
- LACTATE DEHYDROGENASE [1]: 85 u/L
- LIPASE [1]: 10 u/L
- PHOSPHORUS [1]: 10.2 mg/dL
- POTASSIUM [1]: 5.78 MEQ/L
- SODIUM [1]: 144.12 MEQ/L
- TOTAL BILIRUBIN [1]: 0.2 mg/dL
- TOTAL PROTEIN [1]: 5.8 G/DL
- URIC ACID [1]: 0.8 mg/dL
- ABSOLUTE BASOPHIL [2]: 0 CELLS/uL
- ABSOLUTE EOSINOPHIL [2]: 0 CELLS/uL
- ABSOLUTE LYMPHOCYTE [2]: 10431 CELLS/uL
- ABSOLUTE MONOCYTE [2]: 90.5 CELLS/uL
- ABSOLUTE SEGMENTED NEUTROPHIL [2]: 1111.83 CELLS/uL
- BASOPHIL [2]: 0%
- EOSINOPHIL [2]: 0%
- ERYTHROCYTE COUNT [2]: 5.51 x10E6/uL
- HEMATOCRIT [2]: 34.67%
- HEMOGLOBIN [2]: 13.5 G/DL
- LEUKOCYTE COUNT [2]: 11.63 x10E3/uL
- LYMPHOCYTE [2]: 89.67%
- MEAN CORPUSCULAR HEMOGLOBIN [2]: 24.5 pg
- MEAN CORPUSCULAR HEMOGLOBIN CONCENTRATION [2]: 38.95 G/DL
- MEAN CORPUSCULAR VOLUME [2]: 62.87 fL
- MONOCYTE [2]: 0.67%
- NEUTROPHIL [2]: 9.67%
- NUCLEATED RED BLOOD CELLS [2]: 0 /100WBC
- PLATELET COUNT [2]: 1052.67 x10E3/uL
- ALANINE AMINOTRANSFERASE [2]: 54.67 u/L
- ALBUMIN [2]: 4.15 G/DL
- ALKALINE PHOSPHATASE [2]: 359.83 u/L
- ASPARTATE AMINOTRANSFERASE [2]: 83 u/L
- BLOOD UREA NITROGEN [2]: 13.5 mg/dL
- CARBON DIOXIDE [2]: 27.17 mmol/L
- CHLORIDE [2]: 98.5 MEQ/L
- CHOLESTEROL [2]: 66.83 mg/dL
- CREATINE PHOSPHOKINASE [2]: 256.17 u/L
- CREATININE [2]: 0.19 mg/dL
- GLUCOSE [2]: 171.33 mg/dL
- LACTATE DEHYDROGENASE [2]: 91.5 u/L
- LIPASE [2]: 10.5 u/L
- PHOSPHORUS [2]: 8.72 mg/dL
- POTASSIUM [2]: 5.34 MEQ/L
- SODIUM [2]: 142.53 MEQ/L
- TOTAL BILIRUBIN [2]: 0.2 mg/dL
- TOTAL PROTEIN [2]: 6.05 G/DL
- URIC ACID [2]: 0.6 mg/dL
- ABSOLUTE BASOPHIL [3]: 0 CELLS/uL
- ABSOLUTE EOSINOPHIL [3]: 0 CELLS/uL
- ABSOLUTE LYMPHOCYTE [3]: 7022 CELLS/uL
- ABSOLUTE MONOCYTE [3]: 162.33 CELLS/uL
- ABSOLUTE SEGMENTED NEUTROPHIL [3]: 715.67 CELLS/uL
- BASOPHIL [3]: 0%
- EOSINOPHIL [3]: 0%
- ERYTHROCYTE COUNT [3]: 5.13 x10E6/uL
- HEMATOCRIT [3]: 32.6%
- HEMOGLOBIN [3]: 12.9 G/DL
- LEUKOCYTE COUNT [3]: 7.9 x10E3/uL
- LYMPHOCYTE [3]: 88.67%
- MEAN CORPUSCULAR HEMOGLOBIN [3]: 25.13 pg
- MEAN CORPUSCULAR HEMOGLOBIN CONCENTRATION [3]: 39.57 G/DL
- MEAN CORPUSCULAR VOLUME [3]: 63.53 fL
- MONOCYTE [3]: 2%
- NEUTROPHIL [3]: 9.33%
- NUCLEATED RED BLOOD CELLS [3]: 0 /100WBC
- PLATELET COUNT [3]: 1191.67 x10E3/uL
- ALANINE AMINOTRANSFERASE [3]: 62 u/L
- ALBUMIN [3]: 4.1 G/DL
- ALKALINE PHOSPHATASE [3]: 340 u/L
- ASPARTATE AMINOTRANSFERASE [3]: 77.67 u/L
- BLOOD UREA NITROGEN [3]: 15.33 mg/dL
- CARBON DIOXIDE [3]: 33.67 mmol/L
- CHLORIDE [3]: 98.67 MEQ/L
- CHOLESTEROL [3]: 85 mg/dL
- CREATINE PHOSPHOKINASE [3]: 201.67 u/L
- CREATININE [3]: 0.15 mg/dL
- GLUCOSE [3]: 165 mg/dL
- LACTATE DEHYDROGENASE [3]: 82.67 u/L
- LIPASE [3]: 10 u/L
- PHOSPHORUS [3]: 11 mg/dL
- POTASSIUM [3]: 5.65 MEQ/L
- SODIUM [3]: 145.13 MEQ/L
- TOTAL BILIRUBIN [3]: 0.2 mg/dL
- TOTAL PROTEIN [3]: 5.9 G/DL
- URIC ACID [3]: 0.73 mg/dL
